Data set [1] can be described thus: Plasma and urine levels of GA metabolites in SD rats orally treated with GA (LC-MS/MS). It is filed as in vivo. The settings on record: GA 0.20 g/kg orally; for concentration at 12 h: female, SD (Sprague-Dawley), rat, plasma, po, 0.2 g/kg. How it is done:
(§1) Then, bile samples were collected for 4 h (E).
(§2) Female SD rats or EHBRs (9-week-old) were anesthetized by an intraperitoneal (i.p.) injection of urethane (1 g/kg) and their jugular veins were exposed. […] Feces were homogenized in phosphate-buffered saline (PBS; 0.15 M, pH 7.2), centrifuged (1.2 × 10^4 g, 10 min), and the supernatants were collected. After 1 week as a washout period, female SD rats were anesthetized by an i.p. injection of urethane (1 g/kg) and their biliary tract was cannulated. […] Aliquots (10 µl) of plasma, urine, homogenate of feces, or bile were mixed with 20 µl of subtilisin (0.91 U/ml) and incubated at 37 °C for 30 min, followed by the addition of 70 µl of astragaloside IV solution (1 µg/ml in ethanol containing 0.5% formic acid, used as internal standard), and kept at −20 °C for 30 min.

Data set [2] in a line: Plasma and urine levels of GA metabolites in EHBRs orally treated with GA (LC-MS/MS). The data set is classed as in vivo, Eisai hyperbilirubinuria rats (EHBRs). The conditions noted are these: for level in accumulated urine for 12 h / concentration at 12 h / level in accumulated urine for 12 h relative to that of 3MGA: GA 200 mg/kg orally; for concentration at 12 h: oral, read-out: plasma concentration at 12 h after treatment. As for the experimental part: as §2

The nature of data set [3]: Fecal excretion of GA metabolites in SD rats injected i.v. with GA. The data set is classed as in vivo. The conditions noted are these: GA 0.2 mg/kg i.v. As for the experimental part: as §1, §2
The test system of data set [4] is anti-3MGA-mAb. The data set can be described thus: Competitive ELISA using anti-3MGA-mAb. It is filed as binding. The settings on record: specificity to 3MGA calibrated to 100%, n = 1. As for the experimental part: Figure 5 Dot-blot analysis and ELISA detection range of GL metabolites using anti-3MGA-monoclonal antibody (mAb). GL metabolites (1 µg each) were spotted on a PES membrane, and colored using an anti-3MGA-mAb (A). Competitive ELISA using anti-3MGA-mAb for GL metabolites was performed. Data are represented from a single analysis (n = 1) (B). […] Data are represented as mean ± S.D. (n = 3). Two-way ANOVA indicated a significant difference between GA and 3 (F1,36 = 4441, P < 0.001), concentrations (F8,36 = 315, P < 0.001), and their interactions (F8,36 = 281, P < 0.001). The calibrated line for the absorbance-concentration profile of 3 was calculated by the linear least-squares method, and the regression formula is shown in graph (C).
When the specificity of the mAb to 3MGA was calibrated to 100%, the cross-reactivity for GL, GA, 1, 2, and 3 was 0.23%, 2.2%, 4.8%, 4.0%, and 23%, respectively. […] We confirmed the selectivity of the anti-3MGA-mAb in discriminating between 3 and GA and established the detectable measurement range for 3 in this ELISA system.
3MGA-HSA (1 µg/ml in 50 mM carbonate buffer, pH 9.6) was added into a 96-well plate (Nagel Nunc, Penfield, NY, USA) (100 µl in a well) and incubated at 37 °C for 1 h. After the removal of 3MGA-HSA, the wells were washed three times with T-PBS (200 µl in a well). The wells were incubated with 300 µl in a well of 5% skim milk at 4 °C overnight. After the wells had been washed with T-PBS three times, the sample solution diluted with Can Get Signal® Solution 1 (Toyobo Co., Ltd., Osaka, Japan) (50 µl in a well) and anti-3MGA-mAb (1:4,000 dilution with Can Get Signal® Solution 1) (50 µl in a well) were added to the wells, and the plate was incubated at 37 °C for 1 h. After the wells had been washed with T-PBS three times, HRP-labeled goat anti-mouse IgG (Fc specific) antibody (Sigma, 1:20,000 dilution with Can Get Signal® Solution 2) was added into the wells (100 µl in a well) and the plate was incubated at 37 °C for 1 h. Next, the wells were washed with T-PBS three times and the substrate solution (3,3′,5,5′-tetramethylbensidine, TMB solution; Fujifilm Wako Pure Chemical Corporation, Osaka, Japan) was added to the wells (100 µl in a well), followed by incubation at room temperature for 5 min. Then, the stop solution (0.5 M sulfuric acid) was added to the wells (100 µl in a well) and the optical density was measured at 450 nm/630 nm.
(In general: In an ELISA, binding on a coated surface is turned into a signal by an enzyme label.)

Data set [5] concerns rat kidney slices. The data set can be described thus: Uptake into rat kidney slices from pooled EHBR plasma. It is filed as in vitro ADME, SD rats. The settings on record: pH 5.5, 2 h. As for the experimental part: Kidney slices were prepared from SD rats and incubated with the pooled plasma, the pH of which pH was adjusted to 5.5 at 4 °C or 37 °C for 2 h. Figure 4A–C show the amounts of 2, 3, and GA accumulated in the kidney slices.
Figure 4 Uptake of 2 and 3 into rat kidney slices (A–C) or into MDCK II cells stably expressing OAT1 or OAT3 (D–F). Female EHBRs were orally treated with GA (200 mg/kg), and their plasma samples were collected […] after the treatment. The concentrations of compounds 2, 3, and GA in the plasma samples of EHBRs were 7.8, 11.5, and 7.0 µM, respectively. Kidneys were collected from normal SD rats, and the kidney slices were incubated with the plasma samples of EHBRs at 37 °C or 4 °C for 2 h (A–C). MDCK II cells stably expressing OAT1 or OAT3 were incubated with the plasma samples of EHBRs at 37 °C for 15 min (D–F). Then, the concentrations of compounds 2, 3, and GA in kidney slices or the cells were measured by LC-MS/MS. Data are expressed as mean ± S.E. (n = 3 for (C, D), and (E); n = 6 for (A, B), and F). *P < 0.05 and **P < 0.01 vs 4 °C group by Student’s t-test for (A–C), and vs mock cells by Dunnett’s multiple t-test for (D–F).
Uptake studies using rat kidney slices and cells stably expressing OAT1 and OAT3 were conducted with the same protocol as in our previous study. We used the same pooled plasma of female EHBRs orally treated with GA for 12 h as in our previous study.

Data set [6] in a line: Binding to serum albumin by ultrafiltration of pooled EHBR plasma. The settings on record: female, EHBR (Eisai hyperbilirubinuria rat), oral, 200 mg/kg.
Setting [7] is: female, EHBR (Eisai hyperbilirubinuria rat), rat, plasma.

On to `CC1(C)[C@@H](O[C@@H]2O[C@H](C(=O)O)[C@@H](O)[C@H](O)[C@H]2O)CC[C@]2(C)[C@H]3C(=O)C=C4[C@@H]5C[C@@](C)(C(=O)O)CC[C@]5(C)CC[C@@]4(C)[C@]3(C)CC[C@@H]12` [3MGA, 3-monoglucuronyl glycyrrhetinic acid, reference compound], for which the “amount in accumulated urine collected 12 h after oral treatment” value (“amount” below) in data set [1] is on record as “below detectable levels”. Moreover, the “level in accumulated urine for 12 h” value in data set [2] amounted to 0.31 nmol. In data set [2] (setting [7]), the concentration at 12 h was 0.09 µM. Also, in data set [3], the “detection in feces collected for 24 h” value is “not found”. Besides, in data set [4], the “cross-reactivity of anti-3MGA-mAb” value is 100%.
For the compound `CC1(C)[C@@H](OS(=O)(=O)O)CC[C@]2(C)[C@H]3C(=O)C=C4[C@@H]5C[C@@](C)(C(=O)O)C[C@H](O)[C@]5(C)CC[C@@]4(C)[C@]3(C)CC[C@@H]12` [compound 2, 22α-hydroxy-18β-glycyrrhetyl-3-O-sulfate], in data set [1], the “amount” value is listed as “below detectable levels”. Besides, in data set [2], the “level in accumulated urine for 12 h relative to that of 3MGA” value (from here on “level … for 12 h relative to that of 3MGA”) was determined as 110 fold. The concentration at 12 h in data set [2] (setting [7]) is roughly 10 µM; in data set [6] (plasma ultrafiltrate) it was less than 0.0032 µM; in data set [6] (plasma) it was 7.8 µM. In data set [3], the “detection in feces collected for 24 h” value was “found”. Moreover, the “uptake by kidney slices at 37 °C compared with 4 °C” value (“uptake … compared with 4 °C” below) in data set [5] is “significantly higher”. In addition, the “cross-reactivity of anti-3MGA-mAb” value in data set [4] is 4.0%.
For the compound `CC1(C)[C@@H](OS(=O)(=O)O)CC[C@]2(C)[C@H]3C(=O)C=C4[C@@H]5C[C@@](C)(C(=O)O)CC[C@]5(C)CC[C@@]4(C)[C@]3(C)CC[C@@H]12` [compound 3, 18β-glycyrrhetyl-3-O-sulfate], the “amount” value in data set [1] amounted to 0.03 nmol. For the same compound, the concentration at 12 h was 0.3 µM in data set [1], roughly 10 µM in data set [2] (setting [7]), less than 0.0032 µM in data set [6] (plasma ultrafiltrate) and 11.5 µM in data set [6] (plasma). Further, the “level … for 12 h relative to that of 3MGA” value in data set [2] was 62 fold. For the same compound, in data set [3], the “detection in feces collected for 24 h” value was “found”. In addition, the “uptake … compared with 4 °C” value in data set [5] is reported as “significantly higher”. In addition, the “cross-reactivity of anti-3MGA-mAb” value in data set [4] is listed as 23%.
For `CC1(C)[C@@H](OS(=O)(=O)O)CC[C@]2(C)[C@H]3C(=O)C=C4[C@@H]5C[C@@](C)(C(=O)O[C@@H]6O[C@H](C(=O)O)[C@@H](O)[C@H](O)[C@H]6O)C[C@H](O)[C@]5(C)CC[C@@]4(C)[C@]3(C)CC[C@@H]12` [compound 1, 22α-hydroxy-18β-glycyrrhetyl-3-O-sulfate-30-glucuronide], the “amount” value in data set [1] is listed as “below detectable levels”. For the same compound, in data set [2], the “level … for 12 h relative to that of 3MGA” value is listed as 8 fold. For the same compound, the concentration at 12 h in data set [2] (setting [7]) was roughly 10 µM. Further, the “detection in feces collected for 24 h” value in data set [3] is reported as “not found”. Further, the “cross-reactivity of anti-3MGA-mAb” value in data set [4] was determined as 4.8%.
For `CC1(C)[C@@H](O)CC[C@]2(C)[C@H]3C(=O)C=C4[C@@H]5C[C@@](C)(C(=O)O)CC[C@]5(C)CC[C@@]4(C)[C@]3(C)CC[C@@H]12` [GA, glycyrrhetinic acid, reference compound], the “time of plasma peak after oral treatment” value in data set [1] was 1 h. Also, the concentration at 12 h in data set [1] was 4.7 µM; in data set [2] (setting [7]) it was roughly 10 µM; in data set [6] (plasma ultrafiltrate) it was less than 0.016 µM; in data set [6] (plasma), 7 µM. The “level in accumulated urine for 12 h” value in data set [2] was 0.05 nmol. In data set [2] (female, EHBR (Eisai hyperbilirubinuria rat), rat, plasma, po, 0.2 g/kg, GA 0.20 g/kg orally, read-out: time of maximum plasma concentration), the Tmax worked out at 1 h. In addition, the “uptake … compared with 4 °C” value in data set [5] was “not different”. Moreover, the “cross-reactivity of anti-3MGA-mAb” value in data set [4] stood at 2.2%.

For the origin of these results see PMC6367500, “18β-glycyrrhetyl-3-O-sulfate would be a causative agent of licorice-induced pseudoaldosteronism” (Scientific Reports, 2019).
